The record followed here is patent US20200129476A1, “PARP Inhibitor in Combination with a Glucocorticoid and/or Ascorbic Acid and/or a Protein Growth Factor for the Treatment of Impaired Wound Healing” (AKRIBES BIOMEDICAL GMBH, priority 2017, published 2020).

Assay [1] concerns primary human dermal fibroblasts (HDF). Description: Primary human dermal fibroblast (HDF) proliferation assay (2D), with or without wound exudate. As to conditions: for cell proliferation under wound exudate-induced inhibition: FIG. 22, WE #43 and #78 used with veliparib; for HDF proliferation, PARP inhibitor plus PDGF: PARP inhibitor dose series + PDGF 20 ng/ml, WE #78 (FIG. 18); for enhancement of PARP inhibitor effect on fibroblast proliferation: added to PARP inhibitor titration. The class given is cell-based. On the procedure:
(§1) Primary human dermal fibroblasts (HDF) were purchased from CELLnTEC, Bern. They were routinely grown in Dulbecco's modified Eagle's medium (DMEM) containing 10% FCS, 2 mM glutamine, and 100 U/ml penicillin/100 μg/ml streptomycin. Media, antibiotics, and glutamine were bought from Lonza. The cells were used at passage 5-15. Cells were trypsinized and seeded at 5000 cells/well in 200 μl into the inner wells of 96-well plates. The outer wells were loaded with sterile water. The cells were allowed to adhere overnight and then incubated for 72 hours at 37° C. under the following conditions: graded compound concentrations or 20 ng/ml PDGF-BB (Tonbo Biosciences) in the absence or presence of different dilutions of sterile-filtered WE in medium. For control samples, 200p1 medium was added instead of specific stimuli. Alternatively, the cells were seeded into 384-well plates at 2500 cells/well directly together with test compounds or growth factors and WE or medium in a total volume of […].
(§2) At the end of the 72-hour incubation period, supernatants were removed for the determination of IL-1ß, and the cells were fixed with 4% paraformaldehyde (Morphisto) for 15 minutes at room temperature and washed 3 times with PBS. A control plate was fixed after the overnight adherence of the cells (day 1) to determine the starting cell number.
Total cellular protein was determined as a measure of cell number by staining the fixed cells with sulforhodamine B (SRB, Sigma). A 0.4% SRB solution in 1% acetic acid was added to the wells for 30 minutes. The wells were then washed with 1 acetic acid until the wash solution remained colorless. After drying, the dye was eluted with 10 mM Tris.HCl, pH8.5, and absorbance was measured either at 550 or 492 nm for lower and higher cell densities, respectively. The average absorbance of the sample representing the day 1 starting cell number (for 96-well plates) was subtracted from the absorbance values of the WE-treated cells.
All experiments were carried out in triplicate for each sample and concentration, and means±standard deviation (SD) were used for the evaluation of the experiment. Results are expressed as percentage of control values for unstimulated cells.
Low molecular weight compounds (see list in Table 1) were dissolved in DMSO (Bioreagent for cell culture, Sigma) at 10 mM or 100 mM and diluted at least 1:1000 in medium for cellular assays (final DMSO concentration ≤0.1%).
(§3) Cells were incubated with compounds for 72 hours in proliferation assays and up to 8 days for FDM assay (refreshed after 4 days). When compounds were tested for their effect on WE stimulation, the incubation of cells with compounds was started and ended simultaneously with WE-incubation.

For assay [2] the test system is unchanged. Description: Fibroblast-derived matrix (FDM) formation assay (3D), with or without wound exudate. The format is cell-based. As to conditions: for FDM formation, veliparib combined with glucocorticoid: WE #78, patient with diabetes, immunosuppression after kidney transplantation (FIG. 7). The method, then:
HDF cells were seeded at 5000 cells/well on day −3 into 96-well tissue culture plates (1250 cells/well for 384-well plates), which had been pre-coated for 1 hour at 37° C. with 0.2% gelatin solution (Sigma). When the cells reached confluence (=day 0), a matrix promoting supplement (vitamin C: 2-phospho-L-ascorbic acid trisodium salt, 100 μg/ml; Sigma) was added together with test samples containing PDGF-BB, TGF-ß1 or graded concentrations of compounds −/+WE as described for the HDF proliferation assay. After 4 days, medium was replaced by fresh vitamin C- and stimulus- as well as compound-containing medium, maintaining the conditions initiated on day 0. TGF-ß1 and PDGF-BB were included as positive controls to promote FDM formation and cell growth, respectively. After a total incubation time of 8 days, FDM production was measured in fixed cultures via SRB staining and evaluated as described above. In some cases, the experiment was stopped and evaluated already on day 4.
Low molecular weight compounds (see list in Table 1) were dissolved in DMSO (Bioreagent for cell culture, Sigma) at 10 mM or 100 mM and diluted at least 1:1000 in medium for cellular assays (final DMSO concentration ≤0.1%). Compounds were typically tested in half-logarithmic dilution series (1:3.33), starting at 10 μM or 100 μM as the highest compound concentration.
as §3

The next assay relates to IL-1ß. Description: IL-1ß secretion by HDF in the presence of wound exudate (ELISA). The class given is cell-based, human. Conditions: FIG. 22; WE #43 and #78 used with veliparib. The method, then:
as §1, §2
IL-1ß levels were determined with a commercial ELISA kit. The amount of IL-1ß contained in the wound exudate added to the cells was subtracted from the total IL-ß in the supernatants in order to determine the cytokine secreted by the cells.
(ELISA stands for enzyme-linked immunosorbent assay.)

[3] abbreviates: presence of WE #78 (diabetic patient).
[4] abbreviates: presence of wound exudate (WE) of patients, several or unspecified WE.
[5] abbreviates: absence of wound exudate (normal medium).
The mark [6] stands for this setting: presence of ⅔ of the wound exudates tested.

Entries after “also recorded” stand apart in the source; their conditions may differ.

Regarding `Oc1cccc2c(O)nccc12` [1,5-IQD, 1,5-Isoquinolinediol], the “fibroblast (HDF) proliferation” value in assay [1] (presence of WE #43) and in assay [1] (setting [3]) was “less active or inactive” throughout.
In the case of `NC(=O)c1cccc(N)c1` [3-AB, 3-Aminobenzamide], the “fibroblast (HDF) proliferation” value in assay [1] (presence of WE #43) and in assay [1] (setting [3]) was “less active or inactive” each time.
`CN(C)Cc1ccc(-c2nc3cccc4c3n2CCNC4=O)cc1` [AG-14361]: the “cell proliferation under wound exudate-induced inhibition” value in assay [1] is on record as “enhanced cell proliferation”. Moreover, the “fibroblast-derived matrix (FDM) formation” value in assay [2] (presence of WE #78 (FIG. 9)) is “strong positive effect”. The “IL-1ß secretion induced by wound exudate” value with IL-1ß is listed as “reducing IL-1ß secretion”.
For `COC1CCN(C(=O)c2cc(Cc3n[nH]c(=O)c4ccccc34)ccc2F)CC1` [AZD-2461] the same measures were “enhanced cell proliferation”, “strong positive effect” and “reducing IL-1ß secretion”.
As for `CN(C)CC(=O)Nc1ccc2[nH]c(=O)c3ccccc3c2c1.Cl` [PJ-34, N-(6-Oxo-5,6-dihydro-phenanthridin-2-yl)-N,N-dimethylacetamide.HCl], the “fibroblast (HDF) proliferation” value in assay [1] (presence of WE #43) and in assay [1] (setting [3]) was “less active or inactive” throughout.
For the molecule `C[C@H]1C[C@H]2[C@@H]3CCC4=CC(=O)C=C[C@]4(C)[C@@]3(Cl)[C@@H](O)C[C@]2(C)[C@@]1(O)C(=O)CO` [beclomethasone], the “fibroblast (HDF) proliferation” value in assay [1] (setting [4]) was “Qualitatively identical results”.
As for `CC1(COc2ccc3c(c2)ncn3-c2ccc3cccc(N4CCC(N)CC4)c3n2)COC1` [crenolanib, Crenolanib], in assay [1] (crenolanib 1 μM, PDGF 20 ng/ml, absence of WE (FIG. 19)), the “effect on PDGF-enhanced proliferation” value is “completely abrogated”. Besides, the “fibroblast (HDF) proliferation” value in assay [1] (setting [3]) is “without any effect”.
On to `C[C@@H]1C[C@H]2[C@@H]3C[C@H](F)C4=CC(=O)C(Cl)=C[C@]4(C)[C@@]3(F)[C@@H](O)C[C@]2(C)[C@@]1(O)C(=O)CO` [halomethasone], for which the “fibroblast (HDF) proliferation” value in assay [1] (setting [4]) is “Qualitatively identical results”.
Still for that read-out and setting: the value for `C[C@]12CCC(=O)C=C1CC[C@@H]1[C@@H]2[C@@H](O)C[C@@]2(C)[C@H]1CC[C@]2(O)C(=O)CO` [hydrocortisone, Hydrocortisone] was “Qualitatively identical results; also recorded: effect was confirmed”.
As for `O=C(c1cc(Cc2n[nH]c(=O)c3ccccc23)ccc1F)N1CCN(C(=O)C2CC2)CC1` [olaparib], in assay [1], the “cell proliferation under wound exudate-induced inhibition” value is “enhanced cell proliferation” and the “HDF proliferation, PARP inhibitor plus PDGF” value is “even further enhanced by the addition of PDGF”. Moreover, the “fibroblast (HDF) proliferation” value in assay [1] (setting [3]) is “dose-dependent increase of HDF proliferation”. Besides, in assay [2] (presence of WE #78 (FIG. 9)), the “fibroblast-derived matrix (FDM) formation” value was “strong positive effect”. Further, the “IL-1ß secretion induced by wound exudate” value in the assay with IL-1ß is “reducing IL-1ß secretion”.
Turning to `C[C@]12C=CC(=O)C=C1CC[C@@H]1[C@@H]2[C@@H](O)C[C@@]2(C)[C@H]1CC[C@]2(O)C(=O)CO` [prednisolone, Prednisolone], the “fibroblast (HDF) proliferation” value in assay [1] (setting [4]) is reported as “Qualitatively identical results; also recorded: effect was confirmed”.
Turning to `C[C@]12C=CC(=O)C=C1CC[C@@H]1[C@@H]2[C@@H](O)C[C@@]2(C)[C@H]1CC[C@]2(O)C(=O)CO` [prelone], the “fibroblast (HDF) proliferation” value in assay [1] (setting [4]) is “Qualitatively identical results”.
Turning to `CNCc1ccc(-c2[nH]c3cc(F)cc4c3c2CCNC4=O)cc1` [rucaparib], in assay [1], the “cell proliferation under wound exudate-induced inhibition” value is on record as “enhanced cell proliferation” and the “HDF proliferation, PARP inhibitor plus PDGF” value is recorded as “even further enhanced by the addition of PDGF”. Besides, the “fibroblast (HDF) proliferation” value in assay [1] (setting [3]) is recorded as “dose-dependent increase of HDF proliferation”. The “fibroblast-derived matrix (FDM) formation” value in assay [2] (presence of WE #78 (FIG. 9)) was “strong positive effect”. Also, the “IL-1ß secretion induced by wound exudate” value in the assay on IL-1ß is “reducing IL-1ß secretion”.
As for `O=C1O[C@H]([C@@H](O)CO)C(O)=C1O` [vitamin C, ascorbic acid], the “fibroblast (HDF) proliferation” value in assay [1] (setting [5]) is “enhances HDF proliferation/ECM formation; also recorded: enhances both fibroblast proliferation”; in assay [1] (setting [6]), “no effect on HDF proliferation/ECM formation; also recorded: no effect on fibroblast proliferation in the 2D assay”. For the same molecule, the “enhancement of PARP inhibitor effect on fibroblast proliferation” value was “strong and consistent synergistic effect could be confirmed; also recorded: synergistically enhance the PARP inhibitor compound effects” in assay [1] (WE #43, different patient (FIG. 15)); “enhance the positive enhancing effect of the PARP antagonists; also recorded: synergistically enhance the PARP inhibitor compound effects” in assay [1] (dexamethasone 3 nM, vitamin C 100 μg/ml, WE #78 (FIG. 14)). For the same molecule, in assay [2] (absence of wound exudate), the “fibroblast-derived matrix (FDM/ECM) formation” value was “enhances both fibroblast proliferation in the fibroblast proliferation assay (also called 2D assay) and fibroblast-derived matrix (FDM) formation”. In assay [2] (setting [6]), the “fibroblast-derived matrix (FDM) formation” value is on record as “no effect on fibroblast proliferation in the 2D assay or fibroblast-derived matrix (FDM) formation in the 3D assay”.
As for Medroxyprogesterone, the “fibroblast (HDF) proliferation” value in assay [1] (setting [4]) was “Qualitatively identical results; also recorded: surprisingly enhances HDF proliferation and ECM formation; also recorded: effect was confirmed”. In addition, the “FDM formation, veliparib combined with glucocorticoid” value in assay [2] is listed as “enhance the effect of veliparib on rescuing fibroblast-derived matrix (FDM) formation after wound exudate treatment”; in assay [2] (listed as MED), “enhance the effect of veliparib on rescuing FDM formation after WE treatment”. Also, the “fibroblast-derived matrix (FDM/ECM) formation” value in assay [2] (presence of wound exudate, WE not specified (FIG. 6: microscopy)) was “surprisingly enhances HDF proliferation and ECM formation”.

B1: PDGF: Platelet-derived growth factor, protein growth factor (Tonbo Biosciences) (protein, UniProt P01127 82-190, looked up)
Platelet-derived growth …: SLGSLTIAEPAMIAECKTRTEVFEISRRLIDRTNANFLVWPPCVEVQRCSGCCNNRNVQCRPTQVQLRPVQVRKIEIVRKKPIFKKATVTLEDHLACKCETVAAARPVT
modifications: PDGF-BB homodimer
Regarding B1, the “HDF proliferation, PDGF added to talazoparib” value in assay [1] (PDGF 20 ng/ml + talazoparib 0.3 μM, WE #78 (FIG. 19)) is given as “further enhanced this recovery”. Also, the “fibroblast (HDF) proliferation” value was “induces HDF proliferation; also recorded: enhances proliferation” in assay [1] (setting [5]) and “has no effect; also recorded: inactive; also recorded: without any effect” in assay [1] (setting [3]).
